Assay results reported in patent US4355024A, “Method and feed for stimulating the growth of animals” (priority 1979, dated 1982).
“And” between values parts separate entries of the source, which are not always exact repeats. Identical values can stand only once. Peptide text beside a SMILES is read from it.

Test: Growth stimulation in rats fed chow containing the additive (body weight over 15 days)
Format: in vivo, Wistar strain rats
Details: 0.25% wt/wt in feed; for Mean Body Weight, experimental animals: 10 male Wistar rats; for Body Weight of Animals (individual experimental animals): male Wistar rats
Method: Two groups of 10 Wistar strain rats each, all males to avoid estrus cyclical changes in the 15-day experimental period, were kept in two separate stock cages in an animal room maintained at 25° C. with an automatic 12-hour light-12-hour-dark cycle. Dry standard laboratory chow pellets were made up into a wet mash by adding a 1:1 mixture of water (wt/wt), which then was compressed by hand into balls weighing approximately 20 grams each. To each 20 g ball made for the experimental group, 50 mg of the methyl ester of L-aspartyl-L-phenylalanine was added, which represents a 0.25% wt/wt admixture. More than adequate food was made freely available to the animals at all times and drinking water was made available ad libitum. All individual rats were numbered by a colored stripe system marked on the tail. The animals were weighed on a balance to an accuracy of 1 gram at the start of the experiment (3 days after arrival in the cages to allow them to adjust to their new environment). They were then weighed again after 2, 4, 6, 8, 10, 12 and 14 days from the start of the new diet (i.e., days 3, 5, 7, 9, 11, 13 and 15 of the experiment). The rates of growth of the control and experimental animals is summarized in tabular form below: […]

[1] = Day 1 (start of diet, baseline)

## COC(=O)[C@H](Cc1ccccc1)NC(=O)[C@@H](N)CC(=O)O [methyl ester of L-aspartyl-L-phenylalanine] (H-Asp-Phe-OMe)
[1]
  Mean Body Weight, experimental animals: 102.6 grams
  Body Weight of Animals (individual experimental animals): 94 grams and 105 grams and 96 grams and 110 grams and 102 grams and 98 grams and 104 grams and 95 grams and 114 grams and 108 grams
Day 3
  Mean Body Weight, experimental animals: 117.8 grams
  Body Weight of Animals (individual experimental animals): 112 grams and 119 grams and 110 grams and 128 grams and 120 grams and 109 grams and 129 grams
Day 5
  Mean Body Weight, experimental animals: 133.4 grams
  Body Weight of Animals (individual experimental animals): 130 grams and 135 grams and 126 grams and 145 grams and 134 grams and 127 grams and 124 grams
Day 7
  Mean Body Weight, experimental animals: 149.8 grams
  Body Weight of Animals (individual experimental animals): 148 grams and 153 grams and 143 grams and 161 grams and 150 grams and 149 grams and 140 grams and 162 grams
Day 9
  Mean Body Weight, experimental animals: 166.8 grams
  Body Weight of Animals (individual experimental animals): 169 grams and 160 grams and 161 grams and 178 grams and 166 grams and 158 grams and 165 grams and 155 grams and 180 grams
Day 11
  Mean Body Weight, experimental animals: 183.1 grams
  Body Weight of Animals (individual experimental animals): 184 grams and 188 grams and 180 grams and 193 grams and 183 grams and 172 grams and 181 grams and 169 grams and 197 grams
Day 13
  Mean Body Weight, experimental animals: 199.9 grams
  Body Weight of Animals (individual experimental animals): 203 grams and 204 grams and 195 grams and 209 grams and 202 grams and 186 grams and 200 grams and 184 grams and 213 grams
Day 15
  Mean Body Weight, experimental animals: 215.9 grams
  Body Weight of Animals (individual experimental animals): 220 grams and 223 grams and 211 grams and 226 grams and 217 grams and 201 grams and 215 grams and 198 grams and 227 grams and 221 grams
rats, after 2 weeks
  mean body weight of the experimental group higher than the mean body weight of the control group: about 34%
rats, beginning with the seventh day of the experiment
  increase in body weight versus control (in words): significant increases in body weight
